The text below walks through data of patent US6451819B2, “Heterocyclic compounds useful as NMDA receptor selective subtype blockers” (Hoffmann-La Roche Inc., priority 2000, dated 2002).

Molecules are shown by their SMILES.

A word on the melting point: it is the temperature, or range, at which the solid turns liquid. A word on the IC50: it is the concentration that gives 50% inhibition.

Test system in the first data set: not given
Experiment: not given
Conditions: not given
Compound `Cl.O=S(=O)(c1ccc(O)cc1)C1CCN(CCCCc2ccccc2)C1` (racemic) yielded a melting point of 121 to 124 °C.

In the next data set the target is T1, NMDA receptor (3H-Ro 25-6981 binding site), rat brain membranes (Rattus norvegicus, UniProt P35439+Q00960).
T1 construct: Membranes were prepared by homogenization of the whole brain minus cerebellum and medulla oblongata; from tissue; host or cells: rat whole brain minus cerebellum and medulla oblongata, membrane preparation
T1 sequence (Q00960 27-1482, other chains not shown): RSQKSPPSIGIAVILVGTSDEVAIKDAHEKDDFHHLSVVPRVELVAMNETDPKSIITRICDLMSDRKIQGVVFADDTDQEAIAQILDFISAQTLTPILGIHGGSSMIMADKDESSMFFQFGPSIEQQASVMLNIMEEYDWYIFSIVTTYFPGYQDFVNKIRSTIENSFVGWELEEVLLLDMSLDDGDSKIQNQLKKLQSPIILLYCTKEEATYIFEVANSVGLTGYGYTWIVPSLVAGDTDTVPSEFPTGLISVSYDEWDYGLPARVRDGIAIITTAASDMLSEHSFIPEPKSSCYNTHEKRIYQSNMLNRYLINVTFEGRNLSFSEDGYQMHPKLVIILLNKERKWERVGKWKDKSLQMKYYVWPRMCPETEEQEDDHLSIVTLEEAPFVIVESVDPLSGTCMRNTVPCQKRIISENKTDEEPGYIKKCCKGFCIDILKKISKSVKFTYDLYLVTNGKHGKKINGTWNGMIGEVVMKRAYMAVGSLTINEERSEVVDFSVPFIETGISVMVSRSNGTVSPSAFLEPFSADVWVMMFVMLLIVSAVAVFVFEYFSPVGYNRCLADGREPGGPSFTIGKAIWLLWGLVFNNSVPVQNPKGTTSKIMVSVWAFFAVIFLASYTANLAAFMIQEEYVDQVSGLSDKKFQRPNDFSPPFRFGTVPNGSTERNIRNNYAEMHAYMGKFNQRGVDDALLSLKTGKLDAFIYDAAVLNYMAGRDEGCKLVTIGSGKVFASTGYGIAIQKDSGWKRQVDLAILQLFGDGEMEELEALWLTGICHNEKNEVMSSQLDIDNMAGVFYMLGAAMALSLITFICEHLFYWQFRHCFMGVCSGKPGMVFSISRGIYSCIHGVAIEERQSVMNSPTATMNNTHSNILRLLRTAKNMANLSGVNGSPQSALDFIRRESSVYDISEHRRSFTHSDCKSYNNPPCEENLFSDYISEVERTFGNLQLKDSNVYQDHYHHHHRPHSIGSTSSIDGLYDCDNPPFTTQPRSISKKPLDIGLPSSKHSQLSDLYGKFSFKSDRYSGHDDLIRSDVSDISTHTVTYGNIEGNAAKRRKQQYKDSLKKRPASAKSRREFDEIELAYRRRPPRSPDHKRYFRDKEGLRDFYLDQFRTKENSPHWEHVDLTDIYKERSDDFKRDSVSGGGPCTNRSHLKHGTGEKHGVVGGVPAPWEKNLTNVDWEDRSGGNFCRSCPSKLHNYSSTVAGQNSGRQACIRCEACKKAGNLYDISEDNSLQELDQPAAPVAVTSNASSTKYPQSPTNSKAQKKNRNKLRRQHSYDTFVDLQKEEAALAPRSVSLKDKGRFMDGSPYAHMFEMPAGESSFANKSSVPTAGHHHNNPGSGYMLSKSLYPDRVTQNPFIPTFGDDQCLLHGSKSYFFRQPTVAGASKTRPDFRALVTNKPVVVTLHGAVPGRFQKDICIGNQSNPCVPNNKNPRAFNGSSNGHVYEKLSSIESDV
Briefly: 3H-Ro 25-6981 binding.
Conditions: not given
Here is the method:
3H-Ro 25-6981 binding (Ro 25-6981 is [R—(R*,S*)]-a-(4-hydroxy-phenyl)-b-methyl-4-(phenyl-methyl)-1-piperidine propanol)
Male Füllinsdorf albino rats weighing between 150-200 g were used. Membranes were prepared by homogenization of the whole brain minus cerebellum and medulla oblongata with a Polytron (10,000 rpm, 30 seconds), in 25 volumes of a cold Tris-HCl 50 mM, EDTA 10 mM, pH 7.1 buffer. The homogenate was centrifuged at 48,000 g for 10 minutes at 4° C. The pellet was resuspended using the Polytron in the same volume of buffer and the homogenate was incubated at 37° C. for 10 minutes. After centrifugation the pellet was homogenized in the same buffer and frozen at −80° C. for at least 16 hours but not more than 10 days. For the binding assay the homogenate was thawed at 37° C., centrifuged and the pellet was washed three times as above in a Tris-HCl 5 mM, pH 7.4 cold buffer. The final pellet was resuspended in the same buffer and used at a final concentration of […].
3H-Ro 25-6981 binding experiments were performed using a Tris-HCl 50 mM, pH 7.4 buffer. For displacement experiments 5 nM of 3H-Ro 25-6981 were used and non-specific binding was measured using 10 mM of tetrahydroisoquinoline and usually it accounts for 10% of the total. The incubation time was 2 hours at 4° C. and the assay was stopped by filtration on Whatman GF/B glass fiber filters (Unifilter-96, Packard, Zürich, Switzerland). The filters were washed 5 times with cold buffer. The radioactivity on the filter was counted on a Packard Top-count microplate scintillation counter after addition of […] of microscint 40 (Canberra Packard S.A., Zürich, Switzerland).
The effects of compounds were measured using a minimum of 8 concentrations and repeated at least once. The pooled normalized values were analyzed using a non-linear regression calculation program which provide IC50 with their relative upper and lower 95% confidence limits (RS1, BBN, USA).
Compound `Oc1ccc(S[C@H]2CCN(CC(F)CCc3ccccc3)C2)cc1` (mixture of isomers) [Example 68, (2RS,3S)-4-[1-(2-Fluoro-4-phenyl-butyl)-pyrrolidin-3-ylsulfanyl]-phenol] showed a half-inhibitory concentration (IC50) of 77 nM.

For `O=S(=O)(c1ccc(O)cc1)[C@H]1CCN(CC(F)CCc2ccccc2)C1` (mixture of isomers) [Example 35, (2R,3S) and (2S,3S)-4-[1-(2-Fluoro-4-phenyl-butyl)-pyrrolidine-3-sulfonyl]-phenol], the IC50 came out at 29 nM.

Staying with this data set, now noted: displacement of 5 nM 3H-Ro 25-6981, rat whole brain minus cerebellum and medulla oblongata membranes, 2 hours at 4° C.; read-out: IC50.
`O=S(=O)(c1ccc(O)cc1)[C@H]1CCN(CC(O)C2Cc3ccccc3C2)C1` (mixture of isomers) [Example 43, (2R,3S) and (2S,3S)-4-[1-(2-Hydroxy-2-indan-2-yl-ethyl)-pyrrolidine-3-sulfonyl]-phenol]: the IC50 turned out to be 31 nM.

Turning to `O=S(=O)(c1ccc(O)cc1)C1CCN([C@H]2CC[C@@H](c3ccccc3)CC2)C1` (relative stereo) [Example 6, (3RS,cis)-4-[1-(4-Phenyl-cyclohexyl)-pyrrolidine-3-sulfonyl]-phenol], the IC50 turned out to be 59 nM.

Turning to `Oc1ccc(S[C@@H]2CCN(CCCCc3ccccc3)C2)cc1` [Example 3, (R)-4-[1-(4-Phenyl-butyl)-pyrrolidin-3-yl-sulfanyl]-phenol], the IC50 worked out at 20 nM.

On to `[O-][S@@+](c1ccc(O)cc1)[C@H]1CCN(C[C@@H](F)CCc2ccccc2)C1` [Example 62, (2S,3S,S-oxide R)-4-[1-(2-Fluoro-4-phenyl-butyl)-pyrrolidine-3-sulfinyl]-phenol], for which the IC50 is 60 nM.

For the compound `O=S(=O)(c1ccc(O)cc1)C1CCN(C2CC(Cc3ccccc3)C2)C1` (stereo not drawn) [Example 4, (3RS,cis) and (3RS,trans)-4-[1-(3-Benzyl-cyclobutyl)-pyrrolidine-3-sulfonyl]-phenol], the IC50 stood at 40 nM.

`Oc1ccc(S[C@H]2CCN(CCCCc3ccccc3)C2)cc1` [Example 2, (S)-4-[1-(4-Phenyl-butyl)-pyrrolidin-3-yl-sulfanyl]-phenol]: the IC50 came out at 9 nM.

In the case of `O=S(=O)(c1ccc(O)cc1)[C@@H]1CN(CCCCc2ccccc2)C[C@H]1O` (racemic) [Example 16, (3RS,4RS)-4-(4-Hydroxy-benzenesulfonyl)-1-(4-phenyl-butyl)-pyrrolidin-3-ol], the IC50 turned out to be 80 nM.
